Measurements taken from PMC7144264 (Journal of Enzyme Inhibition and Medicinal Chemistry, 2020).
“Also recorded” adds a separate entry of the source. Values belong to the molecule of their own block, whether it stands above or below them.

Experiments:
[1] = target: T1, human recombinant COX-2 (Homo sapiens, UniProt P35354); details: cited from earlier work
T1 sequence (P35354 18-604): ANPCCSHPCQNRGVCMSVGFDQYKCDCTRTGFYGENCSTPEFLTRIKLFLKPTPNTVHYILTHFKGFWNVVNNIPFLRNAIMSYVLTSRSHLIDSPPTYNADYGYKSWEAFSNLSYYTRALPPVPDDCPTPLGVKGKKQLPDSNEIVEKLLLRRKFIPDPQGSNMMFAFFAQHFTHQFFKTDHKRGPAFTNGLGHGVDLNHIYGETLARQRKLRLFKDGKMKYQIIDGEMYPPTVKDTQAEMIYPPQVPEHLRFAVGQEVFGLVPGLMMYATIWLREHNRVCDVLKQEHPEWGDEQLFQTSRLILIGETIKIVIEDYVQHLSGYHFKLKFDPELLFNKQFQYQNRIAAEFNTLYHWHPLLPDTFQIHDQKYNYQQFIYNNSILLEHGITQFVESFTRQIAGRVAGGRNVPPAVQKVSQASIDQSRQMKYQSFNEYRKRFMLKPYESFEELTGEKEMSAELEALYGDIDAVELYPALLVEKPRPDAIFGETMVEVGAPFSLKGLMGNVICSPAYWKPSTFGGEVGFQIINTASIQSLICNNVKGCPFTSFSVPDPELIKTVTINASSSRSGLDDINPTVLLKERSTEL

[2] = in vivo; cited from earlier work
[3] = target: T2, ovine COX-1 (Ovis aries, UniProt P05979); details: read-out: concentration reducing the rate of cyclooxygenation to about half; COX-1, AA as substrate; cited from earlier work
T2 sequence (P05979 25-600): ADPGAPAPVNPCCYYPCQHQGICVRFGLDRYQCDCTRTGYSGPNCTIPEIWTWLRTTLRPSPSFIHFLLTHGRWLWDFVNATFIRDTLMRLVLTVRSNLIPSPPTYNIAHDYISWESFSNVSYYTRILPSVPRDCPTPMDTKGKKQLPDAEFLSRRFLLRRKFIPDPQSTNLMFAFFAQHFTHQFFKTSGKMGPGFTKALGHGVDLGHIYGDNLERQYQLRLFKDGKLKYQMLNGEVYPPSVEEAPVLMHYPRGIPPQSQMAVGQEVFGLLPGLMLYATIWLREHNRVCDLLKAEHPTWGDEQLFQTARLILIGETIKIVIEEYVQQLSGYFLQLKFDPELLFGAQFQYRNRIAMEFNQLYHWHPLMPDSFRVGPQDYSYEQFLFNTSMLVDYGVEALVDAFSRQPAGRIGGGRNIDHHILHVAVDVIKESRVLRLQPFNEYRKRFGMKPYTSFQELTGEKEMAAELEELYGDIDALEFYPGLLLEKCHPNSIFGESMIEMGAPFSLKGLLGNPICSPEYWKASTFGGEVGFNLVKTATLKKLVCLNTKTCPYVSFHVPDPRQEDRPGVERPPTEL

[4] = mouse; cited from earlier work
[5] = system: COX-2; set-up: method as in PMID 25757568; details: cited from earlier work
[6] = system: COX-1; set-up: method as in PMID 25757568; details: cited from earlier work
[7] = set-up: method as in PMID 25757568; details: cited from earlier work
[8] = system: FAAH; set-up: method as in PMID 25757568; details: cited from earlier work
[9] = target: T3, rat brain FAAH (Rattus norvegicus, UniProt P97612); test: FAAH assay: hydrolysis of [3H]AEA by rat brain homogenates; assay type: biochemical; details: for IC50: 0.5 µM [3H]AEA, rat brain homogenates, read-out: IC50 for inhibition of the hydrolysis of [3H]AEA
T3 construct: hydrolysis of 0.5 µM [^3H]AEA by rat brain homogenates; from tissue; host or cells: rat brain (minus cerebella), washed membrane homogenate
T3 sequence (P97612 1-579): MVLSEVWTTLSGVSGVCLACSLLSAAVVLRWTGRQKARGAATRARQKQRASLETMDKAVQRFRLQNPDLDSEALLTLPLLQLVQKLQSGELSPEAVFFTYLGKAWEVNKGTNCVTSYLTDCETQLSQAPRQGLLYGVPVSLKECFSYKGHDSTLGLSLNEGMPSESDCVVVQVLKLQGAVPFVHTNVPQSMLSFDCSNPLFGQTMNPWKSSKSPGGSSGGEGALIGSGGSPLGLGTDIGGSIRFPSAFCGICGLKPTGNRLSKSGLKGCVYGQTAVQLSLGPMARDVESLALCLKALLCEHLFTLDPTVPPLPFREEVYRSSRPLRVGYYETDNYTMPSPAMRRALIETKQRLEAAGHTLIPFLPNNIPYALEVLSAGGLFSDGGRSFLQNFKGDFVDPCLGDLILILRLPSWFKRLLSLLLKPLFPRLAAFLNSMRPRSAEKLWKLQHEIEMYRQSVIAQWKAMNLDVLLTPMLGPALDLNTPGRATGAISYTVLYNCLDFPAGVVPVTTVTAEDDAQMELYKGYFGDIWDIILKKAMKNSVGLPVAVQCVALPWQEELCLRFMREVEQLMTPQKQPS
Description: Frozen (−80 °C) brains (minus cerebella) from adult Wistar or Sprague-Dawley rats were thawed and homogenised in 20 mM HEPES, 1 mM MgCl2, pH 7.0. The homogenates were then centrifuged at ∼35000 x g for 20 min at 4 °C followed by washing (by recentrifugation and by resuspension in the buffer) twice before incubation at 37 °C for 15 min in order to hydrolyse all endogenous FAAH substrates. After a further centrifugation, pellets were resuspended in 50 mM Tris-HCl buffer, pH 7.4, containing 1 mM EDTA and 3 mM MgCl2, and frozen at −80 °C in aliquots until used for the assay. For the FAAH assay, test compounds, homogenates and [^3H]AEA (diluted with non-radioactive AEA to give a substrate concentration of 0.5 μM) in 10 mM Tris- HCl, 1 mM EDTA, pH 7.4, containing 1% w/v fatty acid-free bovine serum albumin were incubated for 10 min at 37 °C. Activated charcoal in 0.5 M HCl was added to adsorb the unmetabolized [^3H]AEA and the samples were mixed and left at r.t. for ∼30 min. Following centrifugation at 2000 g for 10 min, aliquots of the supernatants, containing the [^3H]ethanolamine produced by hydrolysis of [^3H]AEA, were analysed for tritium content by liquid scintillation spectroscopy with quench correction. Blank values were obtained by the use of buffer rather than homogenate.
Data were expressed as % of vehicle (ethanol) control and analysed using the algorithm log(inhibitor) vs. response – variable slope (four parameters) built into the GraphPad Prism computer programme v8.3 for the Macintosh (GraphPad Software Inc., San Diego, CA). The programme reports 95% confidence limits (profile likelihood) for the IC50 values and these presented in the results.

[10] = target: T3, rat brain FAAH; test: FAAH assay: hydrolysis of [3H]AEA by rat brain homogenates; assay type: biochemical; details: kinetics of inhibition of rat FAAH, mixed-type model
[11] = target: T1, human recombinant COX-2; test: COX-2 assay, oxygen electrode (cyclooxygenation of AA, 2-AG or AEA); assay type: biochemical; set-up: purchased Cayman Chemical Co. 60122; details: for inhibition of AA cyclooxygenation by COX-2: 10 µM AA
Description: (§1) The assay was performed essentially according to the method of Meade et al[21]. An oxygen electrode chamber with integral stirring (Oxygraph System, Hansatech Instruments, King ´s Lynn, U.K.) was calibrated daily to ambient temperature and air pressure. The assay buffer contained 0.1 M Tris-HCl buffer pH 7.4, 1 μM haematin, 2 mM phenol, 5 mM EDTA, 10 μM substrate (AA or 2-AG) in a final assay volume was 2 ml. After addition of test compound, a baseline was established for 5 min before initiation of reaction by addition of 200 units ovine COX-1 or human recombinant COX-2. The change in oxygen consumption as a measurement of enzyme activity was monitored for approximately 5 min.

[12] = target: T2, ovine COX-1; test: COX-1 assay, oxygen electrode (cyclooxygenation of substrate); assay type: biochemical; set-up: purchased Cayman Chemical Co. 60100; details: 10 µM AA
Description: as §1

[13] = target: T3, rat brain FAAH; details: removal of the methyl group at the C-2 carbon atom; cited from earlier work
[14] = system: COX; set-up: method as in PMID 28535469; details: cited from earlier work

Molecule: 2–(4-isobutylphenyl)-N-(3-methylpyridin-2-yl)propenamide [Ibu-AM5]
- effect upon COX-2 with AA as substrate ([1]; 100 µM Ibu-AM5): without effect
- IC50 ([1]; read-out: concentration reducing the rate of cyclooxygenation to about half, COX-2, AEA as substrate): ~3000 nM
- ulcerogenic potency [2]: without appreciable ulcerogenic potency
- IC50 [3]: ~50000 nM
- analgesic activity, acetic acid-induced visceral nociception [4]: analgesic activity

Molecule: CCCCCCNC(=O)Oc1cccc(-c2ccc(C(C)C(=O)O)cc2F)c1 (racemic) [ARN2508, (±)−2-[3-fluoro-4-[3-(hexylcarbamoyloxy)phenyl]phenyl]propanoic acid]
- IC50 [5]: 420 nM
- IC50 [6]: 12 nM
- anti-inflammatory effects in vivo [7]: produced anti-inflammatory effects in vivo
- gastric irritation ([7]; in vivo): without causing gastric irritation
- IC50 [8]: 31 nM

Molecule: CC(C)Cc1ccc(C(C)C(=O)Nc2ccccc2O)cc1 (stereo not drawn) [Ibu-AM59, N-(2-Hydroxyphenyl)-2-(4-isobutylphenyl)propanamide]
- IC50 [9]: 8500 nM

Molecule: CC(C)Cc1ccc(C(C)C(=O)Nc2ncccc2C(F)(F)F)cc1 (stereo not drawn) [Ibu-AM60, 2-(4-Isobutylphenyl)-N-(3-(trifluoromethyl)pyridin-2-yl)propanamide]
- melting point: 112 to 114 °C
- IC50 [9]: 360 nM

Molecule: CC(C)Cc1ccc(C(C)C(=O)Nc2ccc(O)cc2)cc1 (stereo not drawn) [Ibu-AM65, N-(4-Hydroxyphenyl)-2-(4-isobutylphenyl)propanamide]
- IC50 [9]: 3800 nM

Molecule: CC(C)Cc1ccc(C(C)C(=O)Nc2ncccc2I)cc1 (stereo not drawn) [Ibu-AM69, N-(3-Iodopyridin-2-yl)-2-(4-isobutylphenyl)propanamide]
- IC50 [9]: 120 nM

Molecule: Cc1cccnc1NC(=O)C(C)(C)c1ccc(CC(C)C)cc1 [Ibu-AM72, 2-(4-Isobutylphenyl)-2-methyl-N-(3-methylpyridin-2-yl)propanamide]
- IC50 [9]: 1000 nM

Molecule: Cc1cccnc1NC(=O)Cc1ccc(CC(C)C)cc1 [Ibufenac-AM1]
- reduction of FAAH inhibitory potency relative to Ibu-AM5 [13]: roughly 60 fold

Molecule: N-(3-chloropyridin-2-yl)−2–(4-((2-(trifluoromethyl)pyridin-4-yl)amino)phenyl)propenamide [TPA-14]
- COX-inhibitory potency [14]: lacked COX-inhibitory potency

Further molecules by falling IC50 [9], results first:

- melting point: 100 to 102 °C
- IC50 [9]: 7900 nM
Molecule: COc1ccc(NC(=O)C(C)c2ccc(CC(C)C)cc2)c(C)c1 (stereo not drawn) [Ibu-AM67, 2-(4-Isobutylphenyl)-N-(4-methoxy-2-methylphenyl)propanamide]

- IC50 [9]: 4100 nM
Molecule: Cc1cccnc1NC(=O)C1(c2ccc(CC(C)C)cc2)CC1 [Ibu-AM73]

- IC50 [9]: 2700 nM
Molecule: CC(C)Cc1ccc(C(C)C(=O)Nc2ncccc2O)cc1 (stereo not drawn) [Ibu-AM70, N-(3-Hydroxypyridin-2-yl)-2-(4-isobutylphenyl)propenamide]

- IC50 [9]: 2000 nM
Molecule: Cc1ccccc1NC(=O)C(C)c1ccc(CC(C)C)cc1 (stereo not drawn) [Ibu-AM38, 2–(4-Isobutylphenyl)-N-(o-tolyl)propanamide]

- IC50 [9]: 910 nM
Molecule: CC(C)Cc1ccc(C(C)C(=O)Nc2ncccc2Cl)cc1 (stereo not drawn) [Ibu-AM58, N-(3-Chloropyridin-2-yl)-2-(4-isobutylphenyl)propanamide]

- melting point: 133 to 135 °C
- IC50 [9]: 350 nM
Molecule: Cc1cc(O)ccc1NC(=O)C(C)c1ccc(CC(C)C)cc1 (stereo not drawn) [Ibu-AM66, N-(4-Hydroxy-2-methylphenyl)-2-(4-isobutylphenyl)propanamide]

- Ki [10]: 260 nM
- α value (ratio of the Ki intercept: Ki slope values) [10]: 4.9
- inhibition of AA cyclooxygenation by COX-2 ([11]; 10 µM compound): did not inhibit
- inhibition of AA cyclooxygenation by COX-2 ([11]; 50 and 100 µM compound): did not inhibit
- inhibition of AA cyclooxygenation by COX-1 ([12]; 10 µM compound): modest inhibition
- inhibition of AA cyclooxygenation by COX-1 ([12]; 50 and 100 µM compound): complete inhibition
- IC50 [9]: 83 nM
- time-dependence of the inhibition ([9]; preincubation with homogenates for up to 60 min prior to addition of substrate): no time-dependence of the inhibition
Molecule: CC(C)Cc1ccc(C(C)C(=O)Nc2ncccc2Br)cc1 (stereo not drawn) [Ibu-AM68, N-(3-Bromopyridin-2-yl)−2-(4-isobutylphenyl)propanamide]
- inhibition of 2-AG cyclooxygenation by COX-2 ([11]; 10 µM compound, 10 µM 2-AG): greatly reduced; also recorded: almost completely inhibited
- mode of inhibition of FAAH ([9]; 60 min preincubation, 20-fold dilution, kinetic experiments): reversible, mixed-type mechanism of inhibition; also recorded: reversible mixed inhibitor
